# The Bradley open melting point set (2014)
# Where “and” joins values, the source holds several entries; their conditions need not be identical. Identical values can stand only once.
row,Compound,melting point
1,OB(O)c1ccccc1Cl [2-chlorobenzeneboronic acid],98 °C
2,II [Iodine],114 °C
3,"ICCCCI [1,4-diiodobutane]",6 °C
4,O=[N+]([O-])c1cccc(Cl)c1 [1-Chloro-3-nitrobenzene],45 °C
5,"CCCc1cc(Br)c(N)c(Br)c1 [2,6-dibromo-4-n-propylaniline]",56 °C
6,CCCCCCCC(=O)CC [3-decanone],-4 °C
7,"S=P(N1CC1)(N1CC1)N1CC1 [1,1',1''-Phosphorothioyltriaziridine]",51.5 °C
8,"COC(F)(F)C(Cl)Cl [2,2-Dichloro-1,1-difluoroethyl methyl ether]",-35 °C
9,COc1cc(C(=O)O)cc(OC)c1OC [Eudesmic acid],172 °C
10,O=C(Cl)c1ccccc1 [Benzoyl chloride],-1 °C
11,"O=C1C(c2ccccc2)=C(c2ccccc2)C(c2ccccc2)=C1c1ccccc1 [2,3,4,5-Tetraphenylcyclopenta-2,4-dien-1-one]",218 °C
12,COc1ccc(C(=O)Nc2ccc(-c3ccc4nn(-c5ccccc5)nc4c3)cc2)cc1,106 °C
13,CCCCCCCCCCCC(C)O (stereo not given) [2-tridecanol],25 °C
14,"Cc1c[nH]c(C)n1 [2,4-dimethylimidazole]",86 °C
15,Cc1ccc(C(=O)O)cc1 [4-Methylbenzoic acid],180 °C
16,O=C1CCCc2cc3c(c(CSc4ccccc4)c21)-c1ccccc1OC3,91 °C
17,CCC(CC)CO [2-ethyl-1-butanol],-52 °C
18,OCc1ccc(O)cc1 [4-hydroxybenzyl alcohol],118 °C
19,O=[N+]([O-])c1ccccc1B(O)O [2-nitrobenzeneboronic acid],150 °C
20,CC1CCC(C(C)C)C(OC(=O)/C(=C/c2ccccc2)Cc2ccccc2)C1 (stereo not given),65 °C
21,"ICCI [1,2-diiodoethane]",82 °C
22,C=CC(=O)OC [methyl_acrylate],-75 °C
23,Cc1ccc(C)cc1 [p-xylene],13 °C
24,Cc1cc(Cl)c2ccccc2n1 [4-chloro-2-methylquinoline],25 °C
25,CCCCCCCCCCCCCCCCS [1-hexadecanethiol],21 °C

# Second part, the compound after the results:
row,melting point,Compound
1,62 °C,O=C1CCSCC1 [tetrahydro-4h-thiopyran-4-one]
2,223 °C,"C[C@]12CCC(=O)C=C1CC[C@@H]1[C@@H]2C(O)C[C@@]2(C)[C@H]1CC[C@]2(O)C(=O)CO (stereo not given in full) [11,17,21-Trihydroxypregn-4-ene-3,20-dione]"
3,29 °C,"COC(=O)Cc1ccc(Cl)c(Cl)c1 [methyl 3,4-dichlorophenylacetate]"
4,136 °C,CCOC(=O)c1cc(-c2ccco2)n[nH]1 [ethyl 3-(2-furyl)-1h-pyrazole-5-carboxylate]
5,-113 °C,CCCSC [methyl n-propyl sulfide]
6,-170 °C,CCO[SiH](OCC)OCC [triethoxysilane]
7,69 °C,CNC(=C[N+](=O)[O-])NCCSCc1ccc(CN(C)C)o1 [ranitidine]
8,188 °C and 189 °C,Nc1ncc2ncn(COCCO)c2n1 [6-Deoxyacyclovir]
9,62 °C,O=C(O)CSCc1ccccc1 [(benzylthio)acetic acid]
10,-66 °C,CCOCOCC [diethoxymethane]
11,66 °C,OC(c1ccccc1)c1ccccc1 [Diphenylmethanol]
12,138 °C,O=C(O)/C=C\C(=O)O [(2Z)-But-2-enedioic acid]
13,115 °C,NC(=O)c1cccc(N)c1 [m-aminobenzamide]
14,116 °C,c1cc2c3c(c1)ccc1cccc(c13)C2 [4H-Cyclopenta[def]phenanthrene]
15,-8.5 °C,CCCCCC=CCC=CCCCCCCCC(=O)O (stereo in doubt) [linoleic acid]
16,121 °C,CCCC(=O)Nc1ccc(OCC(O)CNC(C)C)c(C(C)=O)c1 (stereo not given) [Acebutolol]
17,-115 °C,CO[SiH](OC)OC [Trimethoxysilane]
18,160 °C,c1ccc2cc3c(ccc4ccccc43)cc2c1 [benzanthracene]
19,10 °C,Cc1ccnc2ccccc12 [lepidine]
20,141 °C,COC(=O)c1cc2c(OC)cccc2[nH]1 [methyl 4-methoxyindole-2-carboxylate]
21,-2 °C,O=C1CCCCCO1 [epsilon-caprolactone]
22,264 °C,CC(N)C(=O)O (stereo not given) [Alanine]
23,145 °C,"COCC(CCC(=O)OC)N1CC=CC1 (stereo not given) [methyl 4-(2,5-dihydro-1H-pyrrol-1-yl)-5-methoxypentanoate]"
24,11 °C,Cc1cccc(O)c1 [m-Cresol]
25,145 °C,Cc1cccc(-c2nnn[nH]2)c1 [5-(3-methylphenyl)-1h-tetrazole]
